# Test results as given in PubChem BioAssay (NCI).
#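 Five compound concentrations were applied to cells in 96-well plates for 48 hours; endpoints were derived by simple linear interpolation of the resulting dose-response curve. GI50 marks 50% less growth. Definition used: TGI = concentration required for complete inhibition of growth.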
# Legend:
# Test in all cases: DTP human tumour cell line panel, 48 h
# [1] = tested on: SK-OV-3 ovarian
# [2] = tested on: RXF 393 renal
# [3] = tested on: A498 renal
# [4] = tested on: NCI/ADR-RES ovarian
# [5] = tested on: UACC-257 melanoma
# [6] = tested on: SNB-19 CNS
# [7] = tested on: MDA-MB-231 breast
# [8] = tested on: EKVX NSCLC
# [9] = tested on: SN12C renal
# [10] = tested on: SNB-75 CNS
# [11] = tested on: OVCAR-5 ovarian
# [12] = tested on: K-562 leukemia
# [13] = tested on: HOP-92 NSCLC
# [14] = tested on: MDA-MB-468 breast
# [15] = tested on: SF-295 CNS
# [16] = tested on: OVCAR-3 ovarian
# [17] = tested on: M14 melanoma
# [18] = tested on: PC-3 prostate
# [19] = tested on: RPMI-8226 leukemia
# [20] = tested on: COLO 205 colon
# [21] = tested on: ACHN renal
# [22] = tested on: NCI-H522 lung
# [23] = tested on: CAKI-1 renal
# [24] = tested on: UACC-62 melanoma
# [25] = tested on: SF-539 CNS
# [26] = tested on: UO-31 renal
# [27] = tested on: NCI-H460 lung
# [28] = tested on: OVCAR-8 ovarian
# [29] = tested on: SF-268 CNS
# [30] = tested on: DU-145 prostate
smiles,measurement,setting,value
COc1cc(OC)c2c3nc4cc(C)c(C)cc4nc3n(CCN(C)C)c2c1,TGI,[1],32.1 µM
same,GI50,[2],11.8 µM
same,TGI,[2],25.1 µM
same,GI50,[3],> 100 µM
same,TGI,[3],> 100 µM
same,GI50,[4],10 µM
same,TGI,[4],27.7 µM
same,GI50,[5],14.9 µM
same,TGI,[5],31.9 µM
same,GI50,[6],12.9 µM
same,TGI,[6],25.7 µM
same,GI50,[7],11.6 µM
same,TGI,[7],24.2 µM
same,GI50,[8],14.7 µM
same,TGI,[8],28.3 µM
same,GI50,[9],11.5 µM
same,TGI,[9],24.6 µM
same,GI50,[10],12.1 µM
same,TGI,[10],25.5 µM
same,GI50,[11],15.1 µM
same,TGI,[11],29.1 µM
same,GI50,[12],3.1 µM
same,TGI,[12],25.3 µM
same,GI50,[13],11.5 µM
same,TGI,[13],31.1 µM
same,GI50,[14],12.8 µM
same,TGI,[14],26.4 µM
same,GI50,[15],13.1 µM
same,TGI,[15],26.2 µM
same,GI50,[16],16.1 µM
same,TGI,[16],30.6 µM
same,GI50,[17],13.5 µM
same,TGI,[17],30.6 µM
same,GI50,[18],15.5 µM
same,TGI,[18],61.4 µM
same,GI50,[19],19.9 µM
same,TGI,[19],> 100 µM
same,GI50,[20],5.51 µM
same,TGI,[20],20 µM
same,GI50,[21],11.1 µM
same,TGI,[21],23.1 µM
same,GI50,[22],13.5 µM
same,TGI,[22],33.6 µM
same,GI50,[23],15.9 µM
same,TGI,[23],29.8 µM
same,GI50,[24],15.2 µM
same,TGI,[24],29.1 µM
same,GI50,[25],15 µM
same,TGI,[25],28.3 µM
same,GI50,[26],6.21 µM
same,TGI,[26],20.2 µM
same,GI50,[27],12.1 µM
same,TGI,[27],26.5 µM
same,GI50,[28],2.4 µM
same,TGI,[28],6.84 µM
same,GI50,[29],14.4 µM
same,TGI,[29],32.1 µM
same,GI50,[30],14.5 µM
same,TGI,[30],28.2 µM
